Test results taken from patent US8263344B2, “Compounds regulating calreticulin, KDEL receptor and/or Erp-57 cell surface exposure and uses thereof to evaluate the efficiency of a cancer treatment” (Institut Gustave Roussy, priority 2006, dated 2012).

Assays:
[1] = system: CT26 tumour cells; assay: Anti-tumour vaccination with treated (dying) CT26 cells and challenge with live tumour cells; assay type: in vivo, BALB/c mice; settings: mouse, in vivo
[2] = system: CT26 cells; assay: Fluorescence detection of cell surface CRT; assay type: cell-based, murine
Method: CT26 cells were cultured at 37° C. under 5% CO2 in RPMI 1640 medium supplemented with 10% FCS, penicillin, streptomycin, 1 mM pyruvate and 10 mM HEPES in the presence of doxorubicin (DX; 24 h, 25 μM), mitoxantrone (Mitox; 24 h, 1 μM, Sigma), idarubicin (24 h, 1 μM, Aventis, France), mitomycin C (30 μM, 48 h; Sanofi-Synthelabo, France), and/or zVAD-fmk (50 μM, 24 h; Bachem), tunicamycin (24 h, 65 μM), thapsigargin (24 h, 30 μM), brefeldin A (24 h, 50 μM, Sigma), etoposide (48 h, 25 μM, Tava classics), MG132 (48 h, 10 μM), ALLN (48 h, […]), betulinic acid (24 h, 10 μM), Hoechst 33343 (24 h, 0.2 μM), camptothecine (24 h, 15 μM), lactacystin (48 h, 60 μM), BAY 11-8072 (24 h, 30 μM), staurosporine (24 h, 1.5 μM), bafilomycin A1 (48 h, 300 nM), arsenic trioxide (24 h, 30 μM), C2-ceramide (C2-C; 24 h, 60 μM), calyculin A (48 h, 30 nM), or tautomycin (48 h, […], Sigma) and/or salubrinal (48 h, […], Calbiochem).
CT26 cells (on a glass slide or in 12-well plates) were first washed with FACS buffer (1×PBS, 5% fetus bovine serum, and 0.1% sodium azide) and then incubated with rabbit anti-mouse CRT antibody (1:100, Stressgen) in FACS buffer at 4° C. for 30 min. Cells reacted with anti-rabbit IgG (H+L) Alexa fluor 488-conjugates (1:500) in FACS buffer at 4° C. for 30 min. After washing three times with FACS buffer, surface CRT was detected by cytofluorometric analysis on a FACS Vantage. In some experiments, cells were fixed with 4% paraformaldehyde, counterstained with Hoechst (2 μM; Sigma), followed by fluorescence microscopic assessment with a Leica IRE2 microscope equipped with a DC300F camera.

[3] = system: CT26 tumours; assay: Single intratumoural injection into established CT26 tumours, immunocompetent mice; assay type: in vivo, BALB/c mice; settings: for therapeutic effect of intratumoural injection, single agent, immunocompetent mice: established 14-day-old CT26 tumours; for therapeutic effect combined with a cell death inducer (etoposide or mitomycin C), immunocompetent mice: intratumoural
[4] = system: CT26 tumours; assay: Single intratumoural injection into established CT26 tumours, athymic mice; parameters: species or system nu/nu Balb/c mice; settings: mouse, in vivo
[5] = system: MCA205, B16F10, J558; assay: CRT exposure on a panel of murine tumour cell lines; assay type: cell-based
[6] = system: HeLa, A549, HCT116; assay: CRT exposure on a panel of human tumour cell lines; assay type: cell-based
[7] = system: HCT116 colon cancer cell; assay: Calreticulin exposure with PP1/GADD34 inhibitory peptide (flow cytometry); assay type: cell-based, human; settings: 2 hours
Method: (§1) HCT116 cells (FIG. 7A) or CT26 cells (FIG. 7B) were cultured in complete mediums supplemented with 10% fetal calf serum alone or in the presence of the control peptide (VKKKKIKREIKI-lkaravafsekv) or the PP1/GADD34 inhibitory peptide (VKKKKIKREIKI-lkarkvrfsekv, denominated PP1 peptide) for 2 hours. Cells were washed twice with PBS and fixed in PFA (4% w/v) for 5 min. Cells were stained with an antibody against calreticulin (pAb from Abcam, ab2907) at 1:200 dilution or isotype control, in staining buffer (PBS, 1% FCS) for 30 min on ice, followed by washing. An anti-rabbit Alexa fluor 488 immunoglobulin conjugate (Molecular Probes-Invitrogen) diluted at 1:500 was added for an additional 30 min on ice before washing and analysed by flow cytometry (FACScan, Becton Dickinson). Propidium Iodide (50 μg/ml, Becton Dickinson) was added to the samples to label and exclude permeabilized (dead) cells.

[8] = system: CT26 colon cancer cells; assay: as above; assay type: cell-based, murine; settings: 2 hours
Method: as §1

[9] = system: CT26 cells; assay: Phagocytosis of tumour cells by dendritic cells (DC); assay type: cell-based, BALB/c mice
Method: BM cells were flushed from the tibias and femurs of BALB/c mice with culture medium composed of RPMI 1640 medium (Invitrogen Life Technologies) supplemented with 10% heat-inactivated FBS (Invitrogen), sodium pyruvate, 50 μM 2-ME (Sigma), 10 mM HEPES (pH 7.4), and penicillin/streptomycin (Invitrogen). After one centrifugation, BM cells were resuspended in Tris-ammonium chloride for 2 min to lyse RBC. After one more centrifugation, BM cells (1×10^6 cells/ml) were cultured in medium supplemented with 100 ng/ml recombinant mouse FLT3 ligand (R&D systems) in 6-well plates (Costar Corning). After 7 days, the non-adherent and loosely adherent cells were harvested with Versene, washed and transferred in 12-well plates (1.5×10^6 cells/plate) for cocultures with tumour cells.
In 12-well plates, […] adherent CT26 cells were labelled with Celltracker Green (Calbiochem) and then incubated with drugs. In some experiments viable CT26 were coated with 2 μg/10^6 cells of chicken anti-CRT antibody (ABR affinity bioreagents) or an isotype control for 30 min prior to washing and feeding to dendritic cells Cs. Alternatively CT26 cells were coated with 2 μg/10^6 cells of rCRT on ice for 30 min and washed twice prior to addition to dendritic cells. Cells were then harvested, washed three times with medium supplemented with FBS and cocultured with immature DC for 2 hours at a ratio of 1:1 and 1:5. At the end of the incubation, cells were harvested with versene, pooled with non-adherent cells present in the supernatant, washed and stained with CD11c-FITC antibody. Phagocytosis was assessed by FACS analysis of double positive cells. Phagocytic indexes refer to the ratio between values obtained at 4° C. and values obtained at 37° C. of co-incubation between DC and tumour cells.

[10] = system: CT26 cells; assay: Local immune response: footpad injection, IFN-γ secretion by draining lymph node cells; assay type: in vivo, Balb/c mice; settings: foot pad injection
Method: FIG. 4C: Exogenous supply of CRT enhances the immunogenicity of CRT-negative dying cells. CT26 cells lacking CRT expression after depletion of CRT with a siRNA and mitoxantrone treatment or after mitomycin treatment were coated with rCRT (inserts) and then injected in the food pad, followed by assessment of the IFN-γsecretion by cells from the draining lymph nodes as in FIG. 4B.
Tumours were evaluated weekly, using a caliper.

[11] = system: DC; assay: DC maturation ex vivo; assay type: cell-based; settings: rCRT alone, over a large range of concentrations

Molecule: O=C(/C=C/c1ccccc1)NC(NC(=S)Nc1cccc2cccnc12)C(Cl)(Cl)Cl (stereo not drawn) [salubrinal]
- immunogenic cell death by PP1/GADD34 inhibition alone [1]: not sufficient to induce immunogenic cell death
- CRT exposure at the cell surface [2]: efficiently induced
- therapeutic effect of intratumoural injection, single agent, immunocompetent mice [3]: no major therapeutic effect
- therapeutic effect combined with a cell death inducer (etoposide or mitomycin C), immunocompetent mice [3]: stable disease or complete tumour regression
- therapeutic effect of intratumoural injection, single agent, nu/nu mice [4]: no major therapeutic effect
- CRT exposure, murine tumour cell lines [5]: induced CRT exposure
- CRT exposure, human tumour cell lines [6]: induced CRT exposure

Molecule: VKKKKIKREIKI-lkaravafsekv [mutant control peptide]
- exposure of calreticulin, HCT116 [7]: did not induce calreticulin exposure
- exposure of calreticulin, CT26 [8]: did not induce calreticulin exposure

Molecule: VKKKKIKREIKI-LKARKVRFSEKV (VKKKKIKREIKILKARKVRFSEKV) [peptide comprising SEQ ID NO:4, fragment of GADD34 fused to a DPT-sh1 translocation motif]
- exposure of calreticulin, HCT116 [7]: capable of inducing the exposure of calreticulin
- exposure of calreticulin, CT26 [8]: capable of inducing the exposure of calreticulin

B1: rCRT: recombinant CRT protein (rCRT), which binds to the surface of the cells (protein, UniProt P27797 18-417, looked up)
Calreticulin: EPAVYFKEQFLDGDGWTSRWIESKHKSDFGKFVLSSGKFYGDEEKDKGLQTSQDARFYALSASFEPFSNKGQTLVVQFTVKHEQNIDCGGGYVKLFPNSLDQTDMHGDSEYNIMFGPDICGPGTKKVHVIFNYKGKNVLINKDIRCKDDEFTHLYTLIVRPDNTYEVKIDNSQVESGSLEDDWDFLPPKKIKDPDASKPEDWDERAKIDDPTDSKPEDWDKPEHIPDPDAKKPEDWDEEMDGEWEPPVIQNPEYKGEWKPRQIDNPDYKGTWIHPEIDNPEYSPDPSIYAYDNFGVLGLDLWQVKSGTIFDNFLITNDEAYAEEFGNETWGVTKAAEKQMKDKQDEEQRLKEEEEDKKRKEEEEAEDKEDDEDKDEDEEDEEDKEEDEEEDVPGQAKDEL
- anti-cancer immune response to rCRT-coated cells without prior treatment with cell death inducers [1]: failed to elicit an anti-cancer immune response
- anti-tumour immune response to etoposide-treated cells coated with rCRT [1]: elicited a vigorous anti-tumour immune response
- immunogenicity of mitoxantrone-treated CT26 cells with CRT knock-down, complemented with rCRT [1]: restored
- phagocytosis by DC and CRT expression after CRT-specific siRNA, with addition of rCRT [9]: could reverse the defect
- effect of rCRT injected into a distant site on intratumourally injected etoposide ([3]; contralateral subcutaneous injection): did not ameliorate the antitumoural effects
- therapeutic effect of intratumoural injection, single agent, immunocompetent mice [3]: no major therapeutic effect
- therapeutic effect combined with a cell death inducer (etoposide or mitomycin C), immunocompetent mice [3]: able to cause tumour regression
- therapeutic effect of intratumoural injection, single agent, nu/nu mice [4]: no major therapeutic effect
- immunogenicity (interferon production by T cells from popliteal lymph node) of mitomycin-treated cells coated with rCRT [10]: greatly enhanced the immunogenicity
- DC maturation [11]: could not promote DC maturation
